We go through five compounds from patent US6727231B1, “Uridine therapy for patients with elevated purine levels” (Repligen Corporation, priority 2000, dated 2004).

Structures are written as SMILES. “Also recorded” adds a separate entry of the source.

Data set [1] deals with hyperuricosuric patients. The following applies: some of these patients; cited from earlier work.
Data set [2] relates to Patient having increased uric acid in urine and diagnosed with symptoms of PDD. The experiment in a line: Treatment of Patient 1, who had increased uric acid in urine and was diagnosed with symptoms of PDD. In kind it is in vivo, human. As for the experimental part: Patient 1 was diagnosed with PDD. […], the patient's urine was analyzed, and the urine level of uric acid was 18.1 mg/kg/day. The normal level of uric acid in normal patients at age nine is 8.3+/−2.0 mg/kg/day. The uric acid level in the urine gradually declined to approximately normal levels, however the symptoms of PDD remained.
[…], Patient 1 was treated with a variety of drugs and exercise- and stress-reducing regimens. […] The exercise- and stress-reducing regimen helped in some respects, because Patient 1 was often fatigued. In addition, the low purine diet was continued at times along with vitamin B6 and magnesium. Over these many years, Patient 1 had varying levels of rather minor improvements in their symptoms in response to these and other attempted therapies.
Patient 1 began use of uridine, with an oral dosage of approximately 50 mg/kilogram of body weight per day. […] In particular, Patient 1 tried varying dosages of uridine up to 1000 mg/kg/day.

For data set [3] the following is noted: cited from earlier work.
Data set [4] concerns hypouricosuric PDD patients. The note with it: single oral doses of 1,000 mg/kg/day; cited from earlier work.
For data set [5] the following is noted: cited from earlier work. The source holds these as a separate data set.
Setting [6] is: Patient 1, oral uridine, comparative narrative data against no uridine.

Consider `Oc1ncnc2[nH]ncc12` [allopurinol], for which the “Benefit in patients with hyperuricosuria” value in data set [1] was “benefited”.

Consider `C[C@H](N)Cc1ccccc1.C[C@H](N)Cc1ccccc1.O=S(=O)(O)O` [Dexedrine®, reference compound], for which, in data set [2] (Patient), the “Effect of earlier drug treatment on the patient's condition” value (shortened to “Effect of earlier drug treatment”) is reported as “little success or worsening of their condition”.

With `O=C(CCCN1CCC(O)(c2ccc(Cl)cc2)CC1)c1ccc(F)cc1` [Haldol®, reference compound], the “Effect of earlier drug treatment” value in data set [2] (Patient 1, donor alpha) was “little success or worsening of their condition”.

Take `COC(=O)C(c1ccccc1)C1CCCCN1.Cl` (stereo not drawn) [Ritalin®, reference compound]: the “Effect of earlier drug treatment” value in data set [2] (Patient) is given as “little success or worsening of their condition”.

With `O=c1ccn([C@@H]2O[C@H](CO)[C@@H](O)[C@H]2O)c(=O)[nH]1` [uridine], the “Normal plasma concentration of uridine” value in data set [3] is 2 to 10 µM. Further, in data set [2] (Patient 1), the “Improvements upon cessation of uridine therapy” value is given as “declined or regressed”; the “Neurological and neuromuscular symptoms (autistic disorder and ataxia) upon administration” value is listed as “improved dramatically”. In data set [2] (setting [6]), the “Fine motor skills with uridine” value is “a. Able to use a screwdriver”; the “Gross motor skills with uridine” value is “d. Hugs normally-finds it easier; also recorded: e. Much less exhaustion and pain; also recorded: b. Does not crash into furniture,”; the “Speech and language with uridine” value is “b. Very quick to understand jokes,; also recorded: e. Usually makes eye contact”. Moreover, the “Benefit at this dosage of uridine” value in data set [2] (Patient 1, oral, 150 mg/kg/day) is listed as “rapid benefits”. Also, the “Dosage dependence of improvements” value in data set [2] (Patient 1, varying dosages up to 1000 mg/kg/day) is listed as “The higher dosages gave the most improved results”. Also, the “Effect on symptoms in hypouricosuric PDD patients” value in data set [4] was “reduce the symptoms”. Besides, the “Adverse effect at higher dosages” value in data set [5] (dosages higher than 1000 mg/kg/day, some patients) is given as “mild diarrhea”. Also, the Toxic effects entry in data set [5] (dosages of up to 1000 mg/kg/day, pure uridine) was “no known toxic effects”.
